How the values were obtained:
MCII cells = assay: MCII Mast Cell Toxicity Assay (XTT); assay type: cell-based, mouse; conditions: sensitized MCII cells, 4-12 hours, 37° C., read-out: MCII Mast Cell Toxicity IC50
From the text: MCII Mast Cell Toxicity Assay
This toxicity assay is run in parallel with the MCII mast cell LTC4 assay and serves as an indicator of compound effects on the viability and metabolic activity of the MCII cells. This "toxicity" assay is based on the ability of dehydrogenase enzymes present in viable metabolically active cells to bioreduce the tetrazolium sale XTT yielding a colored, water soluble formazan product. (see, Roehm et al.) "An improved colorimetric assay for cell proliferation and viability utilizing the tetrazolium salt XTT. J. Immunol. Methods 142:257-65 (1991).
A duplicate polystyrene 96-well tissue culture plate (Costar) is set up with sensitized MCII cells, EM95 ascites, media and dilutions of the test compound as described above. The complete media is supplemented with concanavalin A induced culture supernatants from the mouse helper T cell clone D10.G4, as a source of mast cell growth factors.
Wells of the toxicity assay plate are pulsed with 25 μl XTT (Sigma) plus phenazine methosulfate (Aldrich) giving a final concentration of 0.2 mg/ml XTT and 25 μM phenazine methosulfate. The plates are incubated at 37° C. in 10% CO2 for 4-12 hours and then production of the XTT formazan product determined by measuring the optical density of the wells at a wavelength of 450 nm. The positive control on each plate is stimulated MCII cells with dimethyl sulfoxide vehicle alone and the negative control is the same reaction mixture without cells. The background negative control value is subtracted from experimental and positive control values and the data are reported as percent of positive control.

[1] = system: TxB2 production in plasma-depleted blood; assay: Inhibition of Eicosanoid Production by Plasma-Depleted Blood: TxB2; assay type: cell-based; conditions: Homo sapiens, read-out: Plasma DPLTD Blood TxB2 IC50
Description: Inhibition of Eicosanoid Production by Plasma-Depleted Blood
Compounds are evaluated for their ability to inhibit production of leukotriene B4 (LTB4) and thromboxane B2 (TxB2) upon stimulation of human plasma-depleted blood with formyl-methionyl-leucyl-phenylalanine (FMLP) and thrombin. LTB4 is produced by neutrophils and TxB2 by platelets stimulated at their respective receptors with FMLP and thrombin. The assay is carried out in 1 ml deep well polypropylene 96-well plates (Beckman). For the test, ten ml of blood is collected in EDTA at a final concentration of 1.5 mg/ml. Then, 40 ml glucose phosphate buffer containing 0.1% gelatin is added and the suspension centrifuged at 900 g for 10 minutes at room temperature. The supernatant is discarded and the cells washed once with 50 ml buffer before resuspending them in 50 ml Krebs-Ringers-Henseleit Buffer containing 0.1% gelatin, 1 mM CaCl2, 1.1 mM MgCl2 (KRH buffer). Working solutions of test compounds are made by dissolving the material in DMSO at 10 mM and diluting with appropriate amounts of KRH buffer. An agonist solution is made containing 1 μM FMLP (sigma) and 10 units/ml of thrombin in KRH buffer (Enzyme Research Labs). […] The amount of LTB4 and TxB2 produced is determined by the use of a competitive enzyme immunoassay using commercial reagents from Cayman Chemical.

Row | SMILES | CC50 (MCII cells) | IC50 [1]
1 | Oc1ccc(-c2cc3ccc(O)cc3s2)cc1 [Compound B] | < 10 µM | 
2 | O=C(c1ccc(O)cc1)c1c(-c2ccc(O)cc2)sc2cc(O)ccc12 [Compound D] |  | > 9.8 µM
3 | O=C(c1ccc(-c2ccccc2)cc1)c1c(-c2ccc(O)cc2)sc2cc(O)ccc12 [Example 1, 6-hydroxyphenyl-2-(p-hydroxyphenyl)-(benzo(B)thien-3-yl)(p-phenyl)phenyl methanone] | > 10 µM | 
4 | O=C(c1cccc2ccccc12)c1c(-c2ccc(O)cc2)sc2cc(O)ccc12 [Example 2, 6-hydroxyphenyl-2-(p-hydroxyphenyl)-(benzo(B)thien-3-yl) (α-napthyl)methanone] | > 10 µM | 
5 | O=C(c1ccc2ccccc2c1)c1c(-c2ccc(O)cc2)sc2cc(O)ccc12 [Example 3, 6-hydroxyphenyl-2-(p-hydroxyphenyl)-(benzo(B)thien-3-yl)(β-napthyl)methanone] | > 10 µM | 

Source: patent US5514703A, “Benzothiophene compounds useful for inhibiting lipoxygenase” (Eli Lilly and Company, priority 1995, dated 1996)
